The values below come from the Kinase Knowledgebase extract (Sharma et al. 2016).

This experiment concerns the target CDK2 (human) (UniProt P24941). Description: Enzyme Assay.

Usually IC50 stands for the point on the concentration scale where inhibition reaches its midpoint. Compound `CN1CC=C(c2cccc(NC(=O)Nc3csc(-c4ccncc4)n3)n2)CC1` showed an IC50 of less than 0.5 µM.

With `O=C(Nc1cccc(OCCC2CCNCC2)n1)Nc1csc(C2CC2)n1`, the half-maximal inhibitory concentration (IC50) is less than 0.5 µM.

`CC1CCCN(Cc2cccc(NC(=O)Nc3csc(Br)n3)n2)C1` (centres undefined) had an IC50 of less than 0.5 µM.

The compound `CC(c1cccc(NC(=O)Nc2csc(-c3ccncc3)n2)n1)N1CCCCC1` (centres undefined) had a 50% inhibitory concentration (IC50) of less than 0.5 µM.

With `CN1CCC(c2cccc(NC(=O)Nc3csc(-c4ccncc4)n3)n2)CC1`, the IC50 is less than 0.5 µM.

`O=C(Nc1cccc(OCC2CNC2)n1)Nc1csc(Br)n1` showed a 50% inhibitory concentration (IC50) of less than 0.5 µM.

Regarding `CC(C)(C)OC(=O)N1CCC(COc2cccc(NC(=O)Nc3csc(-c4ccncc4)n3)n2)CC1`, the IC50 is less than 0.5 µM.

As to `CC(C)(C)OC(=O)N1CCCCC1CNc1cccc(NC(=O)Nc2csc(-c3ccncc3)n2)n1` (centres undefined), the IC50 is less than 0.5 µM.

In turn, `CN1CC(COc2cccc(NC(=O)Nc3csc(-c4ccccc4)n3)n2)C1` gave an IC50 of less than 0.5 µM.

With `CN1CCC(COc2cccc(NC(=O)Nc3csc(-c4ccccc4)n3)n2)CC1`, the IC50 was less than 0.5 µM.

`O=C(Nc1cccc(OCC2CCOC2)n1)Nc1csc(-c2ccncc2)n1` (centres undefined) showed an IC50 of less than 0.5 µM.

As for `O=C(Nc1cc(CN2CCCCC2)ccn1)Nc1csc(-c2ccccc2)n1`, the IC50 is less than 0.5 µM.

In turn, `Cn1cccc1C(=O)N1CCC(COc2cccc(NC(=O)Nc3csc(-c4ccncc4)n3)n2)C1` (centres undefined) displayed a half-maximal inhibitory concentration (IC50) of less than 0.5 µM.

`CC1CCCN(Cc2cccc(NC(=O)Nc3csc(-c4ccccc4)n3)n2)C1` (centres undefined) had an IC50 of less than 0.5 µM.

On to `O=C(Nc1cccc(OCC2CCNCC2)n1)Nc1csc(Cl)n1`, for which the IC50 was less than 0.5 µM.

On to `O=C(Nc1cccc(Oc2ccc(CN3CCCC3)cc2)n1)Nc1csc(Br)n1`, for which the IC50 was less than 0.5 µM.

As for `CC(C)(C)OC(=O)N1CCC(COc2cccc(NC(=O)Nc3csc(-c4ccncc4)n3)n2)C1` (centres undefined), the IC50 was less than 0.5 µM.

`O=C(Nc1cccc(CN2CCCCC2)n1)Nc1csc(Cl)n1`: the IC50 was less than 0.5 µM.

The compound `CC(C)(C)OC(=O)N1CC=C(c2cccc(NC(=O)Nc3csc(-c4ccncc4)n3)n2)CC1` returned an IC50 of less than 0.5 µM.

Regarding `CCN1CCN(c2cccc(NC(=O)Nc3csc(-c4ccccc4)n3)n2)CC1`, the IC50 was less than 0.5 µM.

The compound `O=C(Nc1cccc(N2CCN(c3ncccn3)CC2)n1)Nc1csc(-c2ccccc2)n1` registered an IC50 of less than 0.5 µM.

As for `Cc1cc(C(=O)N2CCC(COc3cccc(NC(=O)Nc4csc(-c5ccncc5)n4)n3)C2)n(C(C)(C)C)n1` (centres undefined), the IC50 is less than 0.5 µM.

In turn, `O=C(Nc1cccc(CN2CCCC2)n1)Nc1csc(-c2ccccc2)n1` had an IC50 of less than 0.5 µM.

The compound `CC(C)(C)OC(=O)N1CCC(CCOc2cccc(NC(=O)Nc3csc(-c4ccccc4)n3)n2)CC1` came in with an IC50 of less than 0.5 µM.

`CC(C)(C)OC(=O)N1CC(COc2cccc(NC(=O)Nc3csc(-c4ccccc4)n3)n2)C1`: the IC50 is less than 0.5 µM.

As to `CN1CCC[C@H]1COc1cccc(NC(=O)Nc2csc(-c3ccccc3)n2)n1`, the IC50 is less than 0.5 µM.

As for `CN1CC=C(c2cccc(NC(=O)Nc3csc(Br)n3)n2)CC1`, the IC50 was less than 0.5 µM.

The compound `CN1CCC[C@H]1COc1cccc(NC(=O)Nc2csc(-c3cccc(S(N)(=O)=O)c3)n2)n1` gave a half-maximal inhibitory concentration (IC50) of less than 0.5 µM.

The compound `CC1CCCC(C)N1Cc1cccc(NC(=O)Nc2csc(-c3ccncc3)n2)n1` (centres undefined) registered an IC50 of less than 0.5 µM.

As for `CC(C)(C)c1cnc(-c2nc(NC(=O)Nc3cccc(OCCC4CCNCC4)n3)cs2)o1`, the IC50 is less than 0.5 µM.

`C[C@@H]1CCCN(Cc2cccc(NC(=O)Nc3csc(-c4ccncc4)n3)n2)C1` came in with an IC50 of less than 0.5 µM.

The compound `CN1CCC[C@@H]1COc1cccc(NC(=O)Nc2csc(-c3ccncc3)n2)n1` had an IC50 of less than 0.5 µM.

The compound `CC1CCCN(Cc2cccc(NC(=O)Nc3csc(Cl)n3)n2)C1` (centres undefined) came in with an IC50 of less than 0.5 µM.

For the compound `O=C(Nc1cccc(OCC2CCNCC2)n1)Nc1csc(-c2ccccc2)n1`, the IC50 was less than 0.5 µM.

Take `O=C(Nc1cccc(OCC2CCNCC2)n1)Nc1csc(-c2ccncc2)n1`: the IC50 was less than 0.5 µM.

Compound `O=C(Nc1cccc(OCC2CCNCC2)n1)Nc1csc(Br)n1` showed an IC50 of less than 0.5 µM.

For the compound `O=C(Nc1cccc(OCC2CCCO2)n1)Nc1csc(-c2ccncc2)n1` (centres undefined), the 50% inhibitory concentration (IC50) is less than 0.5 µM.

In the case of `O=C(Nc1cccc(C2=CCNCC2)n1)Nc1csc(-c2ccncc2)n1`, the IC50 was less than 0.5 µM.

Take `CN1CC=C(c2cccc(NC(=O)Nc3csc(-c4ccccc4)n3)n2)CC1`: the IC50 is less than 0.5 µM.

Turning to `O=C(Nc1cc(C(=O)N2CCCCC2)ccn1)Nc1csc(-c2ccccc2)n1`, the IC50 is less than 0.5 µM.

In turn, `COc1cc(-c2nc(NC(=O)Nc3cccc(CN4CCCCC4)n3)cs2)ccn1` yielded an IC50 of less than 0.5 µM.

`O=C(Nc1cccc(NCC2CCCCN2)n1)Nc1csc(-c2ccncc2)n1` (centres undefined) yielded an IC50 of less than 0.5 µM.

As for `O=C(Nc1cccc(Oc2ccc(CN3CCCC3)cc2)n1)Nc1csc(-c2ccccc2)n1`, the IC50 is less than 0.5 µM.

`CN1CCC(COc2cccc(NC(=O)Nc3csc(-c4ccncc4)n3)n2)CC1` returned an IC50 of less than 0.5 µM.

On to `CN1CCC[C@H]1COc1cccc(NC(=O)Nc2csc(CS(=O)(=O)c3cccs3)n2)n1`, for which the IC50 is less than 0.5 µM.

`CN1CCC(c2cccc(NC(=O)Nc3csc(-c4ccccc4)n3)n2)CC1` displayed an IC50 of less than 0.5 µM.

In turn, `CC(C)NCc1cccc(NC(=O)Nc2csc(-c3ccccc3)n2)n1` came in with a half-maximal inhibitory concentration (IC50) of less than 0.5 µM.

`CN1CC(COc2cccc(NC(=O)Nc3csc(-c4ccncc4)n3)n2)C1` came in with an IC50 of less than 0.5 µM.

Regarding `O=C(Nc1csc(-c2ccncc2)n1)Nc1ncccn1`, the IC50 was less than 0.5 µM.

`O=C(Nc1cccc(OCC2CNC2)n1)Nc1csc(Cl)n1` showed an IC50 of less than 0.5 µM.

Consider `O=C(Nc1cc(C(=O)N2CCCCC2)ccn1)Nc1csc(Br)n1`, for which the concentration for half-maximal inhibition (IC50) is less than 0.5 µM.

`CC(C)N(Cc1cccc(NC(=O)Nc2csc(Cl)n2)n1)C(=O)OC(C)(C)C`: the IC50 was less than 0.5 µM.

`O=C(Nc1cccc(OCC2CCNC2)n1)Nc1csc(-c2ccncc2)n1` (centres undefined) returned an IC50 of less than 0.5 µM.

`C[C@H]1CCCN(Cc2cccc(NC(=O)Nc3csc(-c4ccncc4)n3)n2)C1` showed an IC50 of less than 0.5 µM.

Consider `CC(C)NCc1cccc(NC(=O)Nc2csc(-c3ncc(C(C)(C)C)o3)n2)n1`, for which the IC50 was less than 0.5 µM.

Regarding `CCN(CC)C(=O)c1cccc(NC(=O)Nc2csc(-c3ccccc3)n2)n1`, the IC50 was less than 0.5 µM.

`O=C(Nc1cccc(OCCC2CCNCC2)n1)Nc1csc(-c2cccs2)n1`: the IC50 is less than 0.5 µM.

In turn, `CCN(CC)Cc1ccnc(NC(=O)Nc2csc(-c3ccncc3)n2)c1` displayed an IC50 of less than 0.5 µM.

Turning to `CCN(CC)C(=O)c1ccnc(NC(=O)Nc2csc(-c3ccncc3)n2)c1`, the IC50 was less than 0.5 µM.

Take `O=C(Nc1cccc(OCC2CNC2)n1)Nc1csc(-c2ccccc2)n1`: the IC50 is less than 0.5 µM.

`O=C(Nc1cc(C(=O)N2CCCCC2)ccn1)Nc1csc(-c2ccncc2)n1` gave an IC50 of less than 0.5 µM.

In turn, `O=C(Nc1cccc(OCCC2CCNCC2)n1)Nc1csc(Br)n1` yielded a half-maximal inhibitory concentration (IC50) of less than 0.5 µM.

`O=C(Nc1cccc(OCCC2CCNCC2)n1)Nc1csc(-c2ccccc2)n1` registered an IC50 of less than 0.5 µM.

With `CC(C)N(Cc1cccc(NC(=O)Nc2csc(Br)n2)n1)C(=O)OC(C)(C)C`, the IC50 was less than 0.5 µM.

The compound `O=C(Nc1cccc(NCCCO)n1)Nc1csc(Br)n1` came in with an IC50 of less than 0.5 µM.

For `O=C(Nc1cccc(OCCC2CCNCC2)n1)Nc1csc(Cl)n1`, the IC50 was less than 0.5 µM.

`O=C(Nc1cccc(NCCCO)n1)Nc1csc(-c2ccncc2)n1` returned an IC50 of less than 0.5 µM.

Compound `CC(C)NCc1cccc(NC(=O)Nc2csc(Cl)n2)n1` came in with an IC50 of less than 0.5 µM.

In turn, `CC(C)(C)OC(=O)N1CCC[C@@H]1COc1cccc(NC(=O)Nc2csc(-c3ccncc3)n2)n1` came in with an IC50 of less than 0.5 µM.
